# Data as given in patent publication US20130101582A1, “Tiki1 and Tiki2, Wnt Inhibitors” (CHILDREN'S MEDICAL CENTER CORPORATION, priority 2010, published 2013).
# B1: Tiki2NΔ: deletion mutant lacking a segment of the Tiki domain, inactive in modifying WNT3A (protein)
# chain: RPQPPDGGQCRPPGSQRDLNSFLWTIRRDPPAYLFGTIHVPYTRVWDFIPDNSKAAFQASTRVYFELDLTDPYTISALASCQLLPHGENLQDVLPHELYWRLKRHLDYVKLMMPSWMTPAQRGKGLYADYLFNAIAGNWERKRPVWVMLMVNSLTERDVRFRGVPVLDLYLAQQAEKMKKTTGAVEQVEEQCHPLNNGLNFSQVLFALNQTLLQQESVRAGSLQASYTTEDLIKHYNCGDLSAVIFNHDTSQLPNFINTTLPPHEQVTAQEIDSYFRQELIYKRNERMGKRVMALLRENEDKICFFAFGAGHFLGNNTVIDILRQAGLEVDHTPAGQAIHSPAPQSPAPSPEGTSTSPAPVTPAAAVPEAPSVTPTAPPEDEDPALSPHLLLPDSLSQLEEFGRQRKWHKRQSTHQRPRQFNDLWVRIEDSTTASPPPLPLQPTHSSGTAKPPFQLSDQLQQQDPPG
# modifications: left off: small tags and cut ends
# B2: KrmN: control recombinant protein, ectodomain of the transmembrane Kremen protein (protein, UniProt Q8NCW0 26-364, looked up)
# extracellular domain: GSLHSPGLSECFQVNGADYRGHQNRTGPRGAGRPCLFWDQTQQHSYSSASDPHGRWGLGAHNFCRNPDGDVQPWCYVAETEEGIYWRYCDIPSCHMPGYLGCFVDSGAPPALSGPSGTSTKLTVQVCLRFCRMKGYQLAGVEAGYACFCGSESDLARGRLAPATDCDQICFGHPGQLCGGDGRLGVYEVSVGSCQGNWTAPQGVIYSPDFPDEYGPDRNCSWALGPPGAALELTFRLFELADPRDRLELRDAASGSLLRAFDGARPPPSGPLRLGTAALLLTFRSDARGHAQGFALTYRGLQDAAEDPEAPEGSAQTPAAPLDGANVSCSPRPGAPPAA
# modifications: extracellular domain
# B3: Human Tiki1: Human Tiki1 (Q86V40/LOC129293) (SEQ ID NO:1), expressed by transfection (protein, listed as Homo sapiens)
# chain: MSPWSWFLLQTLCLLPTGAASRRGAPGTANCELKPQQSELNSFLWTIKRDPPSYFFGTIHVPYTRVWDFIPDNSKEAFLQSSIVYFELDLTDPYTISALTSCQMLPQGENLQDVLPRDIYCRLKRHLEYVKLMMPLWMTPDQRGKGLYADYLFNAIAGNWERKRPVWVMLMVNSLTEVDIKSRGVPVLDLFLAQEAERLRKQTGAVEKVEEQCHPLNGLNFSQVIFALNQTLLQQESLRAGSLQIPYTTEDLIKHYNCGDLSSVILSHDSSQVPNFINATLPPQERITAQEIDSYLRRELIYKRNERIGKRVKALLEEFPDKGFFFAFGAGHFMGNNTVLDVLRREGYEVEHAPAGRPIHKGKSKKTSTRPTLSTIFAPKVPTLEVPAPEAVSSGHSTLPPLVSRPGSADTPSEAEQRFRKKRRRSQRRPRLRQFSDLWVRLEESDIVPQLQVPVLDRHISTELRLPRRGHSHHSQMVASSACLSLWTPVFWVLVLAFQTETPLL
# How the values were obtained:
# Tiki1 expression = test: Regulation of Tiki1 and Dkk1 expression by maternal Wnt signaling, RT-PCR; type: in vivo; details: Xenopus embryos, RT-PCR at stage 10.5
# Procedure: FIG. 3C is a gel showing that Tiki1 expression is regulated by maternal Wnt signaling. Whole embryos were used for LiCl or UV treatment. 20 or 40 pg of Xwnt8 mRNA was injected into ventral marginal zone (VMZ) at 4 to 8-cell stage and VMZ was dissected at stage 10.5 for RT-PCR. ΔNTCF mRNA (1 or 2 ng) was injected into dorsal marginal zone (DMZ) at 4 to 8-cell stage and DMZ was dissected at stage 10.5 for RT-PCR. Con: control.
# SO formation requires maternal Wnt/β-catenin signaling (De Robertis, E. M. et al., Annu Rev Cell Dev Biol 20, 285-308 (2004); Harland, R. et al., Annu Rev Cell Dev Biol 13, 611-667 (1997)), which we found is necessary and sufficient for Tiki1 (and Dkk1) expression.
# [1] = tested on: Xenopus Tiki1 protein synthesis; test: Tiki1 protein synthesis in embryos with morpholino, Western blotting of animal caps; type: in vivo
# Procedure: FIG. 4A is a gel showing that Xenopus Tiki1 protein synthesis is specifically targeted by an antisense morpholino oligonucleotide (MO). 500 pg mRNA for Tiki1-FLAG (targeted by MO) or HA-Tiki1 (resistant to MO) were injected with or without the Tiki1MO (5, 10, 20, 40 ng) into the animal pole at the 2-cell stage, and animal caps were dissected at stage 10 for Western blotting.
# (§1) 20 ng of Tiki1MO was injected into two dorsal blastomeres of 8-cell stage embryos.
# Xenopus embryos [2] = test: Anterior neural marker expression in morpholino-injected whole embryos (Table 2); type: in vivo; details: stage 16
# Procedure: (§2) A functional cDNA expression screen was performed using arrayed Xenopus cDNAs to identify novel genes involved in AP patterning and Wnt signaling. Procedures for embryo manipulation, reverse transcription PCR and in situ hybridization were performed as previously described (Tamai, K. et al., Nature 407, 530-535 (2000)). The Arrayed Xenopus tropicalis full length cDNAs were used for the screening as performed previously (Kato, Y. et al., Nature 418, 641-646 (2002)). cDNA pools (in the CS107 vector) that contain 96 independent clones were transcribed in vitro using SP6 polymerase, and the resulting mRNA pools were injected into the dorsal side of the embryo at 4-cell stage at the dose of 10 ng RNA/embryo. Injected embryos were scored at stage 30-31 for enlarged or diminished anterior development. The positive pools were divided into smaller pools and the same process was repeated until a single cDNA was identified.
# The specific expression in and the requirement for the formation of the head organizer imply Tiki1 function in anterior neural patterning. Tiki1MO was injected with fluorescein dextran (FLD, as a lineage tracer) into one dorsal-animal blastomeres at the 8-cell stage and analyzed expression of anterior neural markers at stage 16. Tiki1 MO suppressed the expression of, in the injected half of the embryo, forebrain marker BF1 and Otx2 (Table 2). […] HA-Tiki1 mRNA injection rescued the expression of BF1, Otx2, and En2 in Tiki1MO-injected embryos (Table 2).
# Xenopus embryos [3] = test: Tiki1MO anterior development/head formation phenotype; type: in vivo; details: 20 ng injected into two dorsal blastomeres of 8-cell stage embryos
# Procedure: as §1
# Xenopus embryos [4] = test: Organizer gene expression in morpholino-injected whole Xenopus embryos (Table 1); type: in vivo; parameters: Whole embryos displaying change in gene expression: Reduced, Percentage (%): concentration or dose not given beside the values
# Procedure: as §2
# HA-Tiki1 mRNA injection rescued the effect of Tiki1MO on all head organizer genes examined (Table 1).
# [5] = molecular target: Recombinant human WNT3A protein (Homo sapiens, UniProt P56704); test: In vitro incubation of recombinant WNT3A with purified protein, Triton X-114 phase separation; type: biochemical; details: purified protein incubated with recombinant human WNT3A
# Procedure: FIG. 6G is a gel showing that recombinant WNT3A was incubated with Krm2N or Tiki2N purified from WCL (top) or from CM (bottom) and was subjected to Triton X-114 phase separation.
# FIG. 6H is a gel showing that Recombinant WNT3A was incubated with Krm2N or Tiki2N or Tiki2NΔ. purified from WCL and was subjected to Triton X-114 phase separation.
# Recombinant human Tiki2N, which is the ectodomain harboring the conserved Tiki domain (FIG. 6J), was purified, via tandem affinity procedures from HEK293T cell extracts or CM.
# Wnt3a signaling = test: TOPFLASH reporter assay, Wnt3a co-transfected with Tiki1 or Tiki2 in HEK293T cells; type: cell-based, human
# Description: Wnt3a and Tiki1 or Tiki2 were co-transfected. The TOPFLASH reading (normalized to Renilla) in Wnt3a alone was set as 100. DNA transfection amounts are shown per well in a standard 24-well plate format. Representative data from one of three independent experiments is shown.
# The enlarged head phenotype by Tiki1 overexpression is indistinguishable from that by overexpression of Dkk1, a Wnt/LRP6 antagonist (MacDonald, B. T. et al., Dev Cell 17, 9-26 (2009); Glinka, A. et al., Nature 391, 357-362 (1998)). […] Thus Tiki1 likely acts at or upstream of Wnt receptors. […] Xenopus Tiki2, and human Tiki1 and Tiki2 also behaved as Wnt antagonists in Xenopus embryos, HEK293T cells (FIG. 2C) and mouse L cells (FIG. 5A).
# [6] = gene Chd, stage 10.5, injected in two dorsal blastomeres at 8-cell stage
# [7] = gene Gsc st.13 (prechordal plate, neurula stage)
# Sequence of Recombinant human WNT3A protein (P56704 19-352): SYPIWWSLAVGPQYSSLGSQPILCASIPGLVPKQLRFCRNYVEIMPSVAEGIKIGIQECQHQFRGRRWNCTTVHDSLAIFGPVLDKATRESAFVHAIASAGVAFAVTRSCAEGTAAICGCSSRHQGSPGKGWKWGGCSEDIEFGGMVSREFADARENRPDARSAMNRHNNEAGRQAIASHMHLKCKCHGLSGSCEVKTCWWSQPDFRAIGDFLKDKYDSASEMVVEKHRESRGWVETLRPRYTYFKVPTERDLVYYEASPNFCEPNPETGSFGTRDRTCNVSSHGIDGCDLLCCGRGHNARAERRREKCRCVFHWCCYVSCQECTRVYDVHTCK
molecule,measurement,setting,value
[Cl-].[Li+] [LiCl],Tiki1 and Dkk1 expression,Tiki1 expression,induced Tiki1 and Dkk1 expression
"Tiki1 MO: morpholino antisense oligonucleotide against Tiki1, 5′-CCAAATGATTACCATCATAGCTCAG-3′ (SEQ ID NO:13) (all phosphorodiamidate morpholino (PMO))",Synthesis of HA-Tiki1,[1]; HA-Tiki1 mRNA lacks the MO complementary sequence,unable to block the synthesis
same,Synthesis of exogenously expressed Tiki1 (Tiki1-FLAG),"[1]; Tiki1-FLAG mRNA targeted by MO, animal caps stage 10",specifically blocked the synthesis
same,"Whole embryos displaying change in gene expression: NC (No Change), Percentage (%)",Xenopus embryos [2]; gene BF1,14%
same,"Whole embryos displaying change in gene expression: Reduced, Percentage (%)",Xenopus embryos [2]; gene BF1,23%
same,"Whole embryos displaying change in gene expression: increased, Percentage (%)",Xenopus embryos [2]; gene BF1,0%
same,"Whole embryos displaying change in gene expression: Absent, Percentage (%)","Xenopus embryos [2]; gene BF1, injected into one dorsal-animal blastomere at 8-cell stage",63%
same,"Whole embryos displaying change in gene expression: Absent, Percentage (%)",Xenopus embryos [2]; gene En-2,40%
same,"Whole embryos displaying change in gene expression: NC (No Change), Percentage (%)",Xenopus embryos [2]; gene En-2,35%
same,"Whole embryos displaying change in gene expression: Reduced, Percentage (%)",Xenopus embryos [2]; gene En-2,25%
same,"Whole embryos displaying change in gene expression: increased, Percentage (%)",Xenopus embryos [2]; gene En-2,0%
same,"Whole embryos displaying change in gene expression: Absent, Percentage (%)",Xenopus embryos [2]; gene HoxB9,0%
same,"Whole embryos displaying change in gene expression: NC (No Change), Percentage (%)",Xenopus embryos [2]; gene HoxB9,100%
same,"Whole embryos displaying change in gene expression: Reduced, Percentage (%)",Xenopus embryos [2]; gene HoxB9,0%
same,"Whole embryos displaying change in gene expression: increased, Percentage (%)",Xenopus embryos [2]; gene HoxB9,0%
same,"Whole embryos displaying change in gene expression: Absent, Percentage (%)",Xenopus embryos [2]; gene Otx2,35%
same,"Whole embryos displaying change in gene expression: NC (No Change), Percentage (%)",Xenopus embryos [2]; gene Otx2,35%
same,"Whole embryos displaying change in gene expression: Reduced, Percentage (%)",Xenopus embryos [2]; gene Otx2,30%
same,"Whole embryos displaying change in gene expression: increased, Percentage (%)",Xenopus embryos [2]; gene Otx2,0%
same,Injected embryos that developed anterior defects,Xenopus embryos [3],roughly 50%
same,"Whole embryos displaying change in gene expression: Absent, Percentage (%)",Xenopus embryos [4]; [6],0%
same,"Whole embryos displaying change in gene expression: NC (No Change), Percentage (%)",Xenopus embryos [4]; [6],64%
same,"Whole embryos displaying change in gene expression: Reduced, Percentage (%)",Xenopus embryos [4]; [6],36%
same,"Whole embryos displaying change in gene expression: Absent, Percentage (%)","Xenopus embryos [4]; gene Dkk1, stage 10.5",25%
same,"Whole embryos displaying change in gene expression: NC (No Change), Percentage (%)","Xenopus embryos [4]; gene Dkk1, stage 10.5",35%
same,"Whole embryos displaying change in gene expression: Reduced, Percentage (%)","Xenopus embryos [4]; gene Dkk1, stage 10.5",40%
same,"Whole embryos displaying change in gene expression: Absent, Percentage (%)",Xenopus embryos [4]; [7],35%
same,"Whole embryos displaying change in gene expression: NC (No Change), Percentage (%)",Xenopus embryos [4]; [7],33%
same,"Whole embryos displaying change in gene expression: Reduced, Percentage (%)",Xenopus embryos [4]; [7],32%
same,"Whole embryos displaying change in gene expression: Absent, Percentage (%)","Xenopus embryos [4]; gene Gsc, stage 10.5",0%
same,"Whole embryos displaying change in gene expression: NC (No Change), Percentage (%)","Xenopus embryos [4]; gene Gsc, stage 10.5",34%
same,"Whole embryos displaying change in gene expression: Reduced, Percentage (%)","Xenopus embryos [4]; gene Gsc, stage 10.5",66%
same,"Whole embryos displaying change in gene expression: Absent, Percentage (%)","Xenopus embryos [4]; gene Lim1, stage 10.5",28%
same,"Whole embryos displaying change in gene expression: NC (No Change), Percentage (%)","Xenopus embryos [4]; gene Lim1, stage 10.5",18%
same,"Whole embryos displaying change in gene expression: Reduced, Percentage (%)","Xenopus embryos [4]; gene Lim1, stage 10.5",54%
same,"Whole embryos displaying change in gene expression: Absent, Percentage (%)","Xenopus embryos [4]; gene Otx2, stage 10.5",7%
same,"Whole embryos displaying change in gene expression: NC (No Change), Percentage (%)","Xenopus embryos [4]; gene Otx2, stage 10.5",33%
same,"Whole embryos displaying change in gene expression: Reduced, Percentage (%)","Xenopus embryos [4]; gene Otx2, stage 10.5",60%
same,"Whole embryos displaying change in gene expression: Absent, Percentage (%)","Xenopus embryos [4]; gene Xnot, stage 10.5",0%
same,"Whole embryos displaying change in gene expression: NC (No Change), Percentage (%)","Xenopus embryos [4]; gene Xnot, stage 10.5",87%
same,"Whole embryos displaying change in gene expression: Reduced, Percentage (%)","Xenopus embryos [4]; gene Xnot, stage 10.5",13%
same,"Whole embryos displaying change in gene expression: Absent, Percentage (%)","Xenopus embryos [4]; gene Xnr3, stage 10.5",0%
same,"Whole embryos displaying change in gene expression: NC (No Change), Percentage (%)","Xenopus embryos [4]; gene Xnr3, stage 10.5",93%
same,"Whole embryos displaying change in gene expression: Reduced, Percentage (%)","Xenopus embryos [4]; gene Xnr3, stage 10.5",7%
B1,Partitioning of WNT3A in Triton X-114 phase separation after in vitro incubation,[5],remained in the detergent phase
B2,Partitioning of WNT3A in Triton X-114 phase separation after in vitro incubation,[5],remained in the detergent phase
B3,"Wnt3a signaling, TOPFLASH reporter",Wnt3a signaling,inhibit Wnt3a signaling
